Target: T1, MPD (methyl parathion hydrolase) (Stenotrophomonas sp. YC-1, UniProt Q0PWQ4)
T1 construct: full ORF (primers from […] to stop; locus Chr1:1174990-1175985, 996 bp), pET28a EcoRI/HindIII, His tag, E. coli BL21(DE3); 331 residues per monomer
Assay: UPLC of residual DDVP, Michaelis-Menten fit
Format: biochemical
Details: 37 °C, 1 min; DDVP 0.01 to 0.04 mM; enzyme refolded from urea

T1 sequence (Q0PWQ4 entry or part of it): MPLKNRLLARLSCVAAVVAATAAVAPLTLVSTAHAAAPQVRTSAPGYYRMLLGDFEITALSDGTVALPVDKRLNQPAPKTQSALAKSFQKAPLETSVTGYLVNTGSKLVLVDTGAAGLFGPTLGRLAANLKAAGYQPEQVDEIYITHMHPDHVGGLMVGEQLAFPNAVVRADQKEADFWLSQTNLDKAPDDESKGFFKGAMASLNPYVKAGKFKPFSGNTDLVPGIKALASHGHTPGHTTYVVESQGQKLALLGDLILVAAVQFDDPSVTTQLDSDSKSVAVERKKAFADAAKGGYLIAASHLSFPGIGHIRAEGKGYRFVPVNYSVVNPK

`COP(=O)(OC)OC=C(Cl)Cl` [DDVP, Dichlorvos] was tested. Which Km did it give?
The Km was 99 µM.
